Tests used:
[1] = tested on: patients with irritable bowel syndrome with diarrhea; assay: Weekly responder rate for relief of IBS symptoms (7-point balanced scale) in patients; format: in vivo, human; details: 16 mcg per day, responder = moderately or significantly relieved
From the text: The patients who had 25% or more loose or very loose stools during the baseline were enrolled as a patient with irritable bowel syndrome with diarrhea. The patients received placebo or lubiprostone 16 mcg per day.

[2] = tested on: patients with irritable bowel syndrome with diarrhea; assay: Subject symptom assessments, change from baseline after 12 weeks treatment; format: in vivo, human; details: 16 mcg per day for 12 weeks
Description: The patients with irritable bowel syndrome with diarrhea defined in Example 1 received luboiprostone 16 mcg per day for 12 weeks.
The assessments were conducted by the following criterias.
Subject Evaluation of Abdominal Bloating: 0=Absent, 1=Mild, 2=Moderate, 3=Severe, and 4=Very Severe Subject Evaluation of Abdominal. Discomfort/Pain: 0=Absent, 1=Mild, 2=Moderate, 3=Severe, and 4=Very Severe Subject Evaluation of Constipation Severity: 0= Absent, 1=Mild, 2=Moderate, 3=Severe, and 4=Very Severe BM Frequency=(7×Number of BMs)/(Number of days) Subject Evaluation of Bowel Straining: 0=Absent, 1=Mild, 2=Moderate, 3=Severe, and 4=Very Severe

CCCCC(F)(F)[C@@]1(O)CC[C@H]2[C@@H](CC(=O)[C@@H]2CCCCCCC(=O)O)O1 [lubiprostone, (−)-7-[(2R, 4aR, 5R, 7aR)-2-(1,1-difluoropentyl)-2-hydroxy-6-oxooctahydrocyclopenta[b]pyran-5-yl]heptancoic acid]
Weekly Responder Rate ([1]; Week 2): 33.8%
Weekly Responder Rate ([1]; Week 3): 34.9%
Weekly Responder Rate ([1]; Week 4): 34.7%
BM Frequency, change from the baseline after the treatment ([2]; BM Frequency=(7×Number of BMs)/(Number of days), baseline 3.64): 0.36
Abdominal Discomfort/Pain, change from the baseline after the treatment ([2]; score 0=Absent to 4=Very Severe, baseline 2.80): −1.08
Constipation Severity, change from the baseline after the treatment ([2]; score 0=Absent to 4=Very Severe, baseline 3.16): −1.31
Abdominal Bloating, change from the baseline after the treatment ([2]; score 0=Absent to 4=Very Severe, baseline 3.28): −1.37
Bowel Straining, change from the baseline after the treatment ([2]; score 0=Absent to 4=Very Severe, baseline 4.00): −2.00

Source: patent US20130281526A1, “METHOD FOR TREATING IRRITABLE BOWEL SYNDROME WITH DIARRHEA” (SUCAMPO AG, priority 2012, published 2013)
